Results on one compound are retold here after patent US9072732B2 (priority 2010, dated 2015).

Each structure is given as a SMILES string.

One data set relates to Hep G2 cells. As to conditions: niacin 0.5 mM 24 h, then ethanol 48 h in presence or absence of niacin.
The subject of data set [1] is high-fat-induced NAFLD in rats. Kind of data set: High-fat diet-induced NAFLD model in rats. As to conditions: 4 weeks.

Description for Hep G2 cells: Cellular fat accumulation was quantitated by nile red O staining and by measuring fluorescence intensity.

Turning to `O=C(O)c1cccnc1` [niacin, nicotinic acid], the alcohol-induced fat accumulation entry in the data set on Hep G2 cells is “significantly inhibited”. Moreover, the serum cholesterol levels result in data set [1] (niacin 0.5% and 1% in high-fat diet, compared to rats fed high-fat diet) is listed as “significantly decreased”. Further, the “body weight of rats” value in data set [1] (niacin 0.5% or 1% in high-fat diet, compared to high-fat fed rats) was “no effect”. Besides, the serum triglyceride levels result in data set [1] (niacin in high-fat diet, compared to rats fed high-fat diet) was “significantly decreased”.
